Test results reported in US5382596A, “Substituted 2-aminotetralins” (priority 1993, dated 1995).
Counter-ions that a name gives are not always drawn. Like-named read-outs stand apart in the source and are kept apart here.

How the values were obtained:
adrenergic α2 receptor = biological target: T1, adrenergic α2 receptor (Rattus norvegicus, UniProt P22909); experiment: Adrenergic α2 in vitro functional test (rat vas deferens, inhibition of twitch); type: biochemical
T1 sequence (P22909 1-465): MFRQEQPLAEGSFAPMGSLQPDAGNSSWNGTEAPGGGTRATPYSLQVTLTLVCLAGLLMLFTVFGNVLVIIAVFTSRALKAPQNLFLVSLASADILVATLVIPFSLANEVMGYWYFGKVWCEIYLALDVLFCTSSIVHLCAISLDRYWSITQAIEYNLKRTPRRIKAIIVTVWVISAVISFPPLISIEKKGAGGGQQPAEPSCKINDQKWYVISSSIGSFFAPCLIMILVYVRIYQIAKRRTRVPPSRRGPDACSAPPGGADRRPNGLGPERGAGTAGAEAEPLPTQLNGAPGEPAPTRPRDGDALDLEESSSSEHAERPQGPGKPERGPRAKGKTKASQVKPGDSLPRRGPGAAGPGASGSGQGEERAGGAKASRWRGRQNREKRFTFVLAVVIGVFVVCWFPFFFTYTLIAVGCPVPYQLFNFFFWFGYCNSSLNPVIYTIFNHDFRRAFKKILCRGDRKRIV
Protocol: Vasa deferentia from male Sprague-Dawley rats weighing between 150-250 g were removed and placed in isolated organ baths containing Krebs-Henseleitsolution under a resting tension of 1 g. All other set up conditions were identical to those used for the mouse was deferens. Tissues were pretreated with propranolol (1 μM), ascorbic acid (100 μM) and the α1 -adrenergic antagonist prazosin (0.3 or 1 μM) for 60 min before the addition of test compound.

[1] = test system: denervated supersensitive postsynaptic dopamine receptors; experiment: In vivo functional test: contralateral circling in rats with unilateral 6-hydroxydopamine lesions of the substantia nigra; parameters: species or system rat; settings: for ED50: contralateral circling, rats, unilateral 6-hydroxydopamine lesion
Description: Dopamine agonists produce contralateral circling behavior in rats in which unilateral lesions of the substantial nigra are made by prior injection of 6-hydroxydopamine. The circling is thought to be mediated by stimulation of denervated supersensitive postsynaptic dopamine receptors (Marshall and Ungerstedt, 1977, Eur. J. Pharmacol., 41:361-367).

dopamine D2 receptor [2] = biological target: dopamine D2 receptor (Mus musculus, UniProt P61168); experiment: biochemical; type: biochemical; settings: for EC50: concentration that produces 50% of the maximal inhibition of twitch, mouse vas deferens, read-out: D2 A50
Chain of dopamine D2 receptor (P61168 whole entry): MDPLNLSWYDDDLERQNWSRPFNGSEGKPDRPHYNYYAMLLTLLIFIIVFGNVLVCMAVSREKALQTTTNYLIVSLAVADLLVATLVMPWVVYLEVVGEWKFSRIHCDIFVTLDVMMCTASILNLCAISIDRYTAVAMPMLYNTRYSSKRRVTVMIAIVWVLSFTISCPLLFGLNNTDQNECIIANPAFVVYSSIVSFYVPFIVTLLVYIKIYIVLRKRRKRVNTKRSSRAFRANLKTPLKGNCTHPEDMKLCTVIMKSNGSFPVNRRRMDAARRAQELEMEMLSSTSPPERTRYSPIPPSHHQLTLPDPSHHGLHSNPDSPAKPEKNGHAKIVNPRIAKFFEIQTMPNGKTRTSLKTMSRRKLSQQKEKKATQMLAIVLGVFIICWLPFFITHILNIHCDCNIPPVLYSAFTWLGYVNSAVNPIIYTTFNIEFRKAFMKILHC
Protocol: Vasa deferentia from male BALB/C mice weighing approximately 30 g were removed and placed in isolated organ baths containing magnesium-free modified Krebs-Henseleit solution which was gassed with 95% O2 and 5% CO2 and maintained at 37° C. Tissues were set up under resting tension of 0.5 g and stimulated electrically at 60 volts, 0.1 Hz and 1 msec duration to produce a series of twitch responses. Tissues were pretreated with propranolol (1 μM) to block β-adrenoceptors, idazoxan (3 μM) to block α2 -adrenoceptors receptors, and ascorbic acid (100 μM) for 60 min before the addition of test compound.

Dopamine D1 receptor = Dopamine D1 receptor (Bos taurus, UniProt Q95136); experiment: biochemical; type: binding, bovine; settings: bovine caudate membranes, 3H-SCH23390, 37° C., 15 min; read-out: D1 K1
Chain of Dopamine D1 receptor (Q95136 whole entry): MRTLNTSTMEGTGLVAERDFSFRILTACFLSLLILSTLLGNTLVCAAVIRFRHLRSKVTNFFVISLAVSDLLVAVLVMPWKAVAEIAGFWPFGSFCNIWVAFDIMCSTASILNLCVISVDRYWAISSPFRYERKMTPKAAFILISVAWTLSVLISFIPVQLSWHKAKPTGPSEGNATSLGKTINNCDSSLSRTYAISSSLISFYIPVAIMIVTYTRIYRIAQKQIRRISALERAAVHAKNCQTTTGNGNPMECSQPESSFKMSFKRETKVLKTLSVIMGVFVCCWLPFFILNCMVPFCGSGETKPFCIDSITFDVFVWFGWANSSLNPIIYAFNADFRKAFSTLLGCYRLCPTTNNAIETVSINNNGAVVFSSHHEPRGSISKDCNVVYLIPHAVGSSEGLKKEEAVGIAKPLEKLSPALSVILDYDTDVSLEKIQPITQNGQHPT
Protocol: (§1) Membranes were prepared using a Brinkmann Polytron and collected by centrifugation. Membrane sources were bovine caudate (D2,D1) or rat cortex (α2). The membranes were washed, resuspended, and incubated at 37° C. for 30 min. in either the presence (rat cortex) of 1 μ/ml adenosine deaminase or absence (bovine caudate) of 0.1 μ/ml adenosine deaminase. Membranes were centrifuged, washed once and frozen at -70° C. until used. Immediately before use, the membranes were thawed, washed once, and resuspended to a final concentration of 0.5-2 mg/ml. Assays were initiated by addition of membranes. For D2 and D1 assays, the radioligands and conditions used were ^3 H-Spiperone (RT, 75 min.) and ^3 H-SCH23390 (37° C., 15 min.), respectively. For α2 assays, ^3 H-PAC (RT, 30 min.) was used Assays were terminated by filtration using a Brandel cell harvester over Whatman GF/B filters that had been pretreated with 0.1% polyethylenimine. […]

Dopamine D2 receptor [3] = biological target: Dopamine D2 receptor (Bos taurus, UniProt P20288); experiment: biochemical; type: binding, bovine; settings: for Ki: bovine caudate membranes, 3H-Spiperone, RT, 75 min, read-out: D2 K1
Chain of Dopamine D2 receptor (P20288 whole entry): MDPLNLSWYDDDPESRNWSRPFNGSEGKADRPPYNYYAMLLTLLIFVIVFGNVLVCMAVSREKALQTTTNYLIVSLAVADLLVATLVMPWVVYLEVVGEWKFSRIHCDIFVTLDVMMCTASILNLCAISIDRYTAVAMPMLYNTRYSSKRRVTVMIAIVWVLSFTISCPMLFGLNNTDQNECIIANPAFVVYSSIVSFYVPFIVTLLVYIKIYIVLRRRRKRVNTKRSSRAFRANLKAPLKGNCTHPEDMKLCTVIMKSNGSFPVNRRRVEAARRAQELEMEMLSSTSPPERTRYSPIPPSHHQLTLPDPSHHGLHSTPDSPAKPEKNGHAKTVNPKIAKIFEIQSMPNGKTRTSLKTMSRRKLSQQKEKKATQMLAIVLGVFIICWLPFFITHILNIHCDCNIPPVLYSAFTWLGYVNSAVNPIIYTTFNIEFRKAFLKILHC
Protocol: as §1

[4] = concentration that produces 50% of the maximal inhibition of twitch, rat vas deferens, read-out: a2 A50

Row | EC50 (adrenergic α2 receptor; [4]) | Specificity Ratio (a2 A50/D2 A50) (dopamine D2 receptor [2]) | EC50 (dopamine D2 receptor [2]) | Ki (Dopamine D1 receptor) | Selectivity Ratio (D1 K1/D2 K1) (Dopamine D2 receptor [3]) | Ki (Dopamine D2 receptor [3]) | D2 receptor specificity (in words) (dopamine D2 receptor [2]; D2 vs. α2) | dopamine D2 receptor affinity (in words) (Dopamine D2 receptor [3]) | D2 receptor selectivity (in words) (Dopamine D2 receptor [3]; D2 vs. D1) | Compound | ED50 [1] | EC50 (adrenergic α2 receptor) | in vivo functional potency (in words) ([1]; rat, in vivo) | dopamine D2 receptor in vitro functional activity/potency (in words) (dopamine D2 receptor [2])
1 | 199 nM | 1000 | 0.2 nM | 5490 nM | 224 | 25 nM | – | – | – | CCCN(CCC1CCCCO1)[C@H]1CCc2c(ccc(O)c2O)C1 (some centres unmarked) [Example 12] | 0.030 µmol/kg | – | – | –
2 | 14.8 nM | 71 | 0.209 nM | 6610 nM | 34 | 195 nM | – | – | – | CCCN(CCC1CCOC1)[C@H]1CCc2c(ccc(O)c2O)C1 (some centres unmarked) [Example 14] | 0.030 µmol/kg | – | – | –
3 | 79.4 nM | 62 | 1.29 nM | 4270 nM | 141 | 30 nM | – | – | – | CCCN(CCC1CCCO1)[C@H]1CCc2c(ccc(O)c2O)C1 (some centres unmarked) [Example 11] | 0.010 µmol/kg | – | – | –
4 | > 10000 nM | > 19500 | 0.513 nM | 7940 nM | 129 | 62 nM | – | – | – | CCCN(CCOC1CCCC1)[C@H]1CCc2c(O)cccc2C1 [Example 16] | 0.090 µmol/kg | – | – | –
5 | 16.6 nM | 118 | 0.141 nM | 1100 nM | 1 | 1100 nM | – | – | – | CCCN(CC1CCOC1)[C@H]1CCc2c(ccc(O)c2O)C1 (some centres unmarked) [Example 15] | 0.009 µmol/kg | – | – | –
6 | 3550 nM | 1620 | 2.19 nM | 16200 nM | 11 | 1510 nM | – | – | – | CCCN(CC1CCCO1)[C@H]1CCc2c(O)cccc2C1 (some centres unmarked) [Example 22] | 0.030 µmol/kg | – | – | –
7 | > 10000 nM | > 14800 | 0.676 nM | 8910 nM | 45 | 200 nM | – | – | – | CCCN(CCOC1CCC1)[C@H]1CCc2c(O)cccc2C1 [Example 18] | 0.020 µmol/kg | – | – | –
8 | 93.3 nM | 914 | 0.102 nM | 5750 nM | 113 | 51 nM | – | – | – | CCCN(CCCOC(C)C)[C@H]1CCc2c(ccc(O)c2O)C1 [Example 13] | 0.006 µmol/kg | – | – | –
9 | 144 nM | 1620 | 0.089 nM | 8910 nM | 166 | 54 nM | high affinity, selectivity, specificity | high affinity | high affinity, selectivity | CCCN(CCOC(C)(C)C)[C@H]1CCc2c(ccc(O)c2O)C1 [Example 9, (S)-6-[[2-(1,1-dimethylethoxy)ethyl]propylamino]-5,6,7,8-tetrahydro-1,2-naphthalenediol] | 0.004 µmol/kg | – | high in vivo functional potency | high affinity, selectivity, specificity, and functional potency
10 | > 10000 nM | > 17000 | 0.589 nM | 9770 nM | 21 | 468 nM | – | – | – | CCCN(CCOC1CC1)[C@H]1CCc2c(O)cccc2C1 [Example 17] | 0.009 µmol/kg | – | – | –
11 | > 10000 nM | > 22900 | 0.437 nM | 7410 nM | 68 | 110 nM | – | – | – | CCCN(CCC1CCCCO1)[C@H]1CCc2c(O)cccc2C1 (some centres unmarked) [Example 23] | 0.010 µmol/kg | – | – | –
12 | 190 nM | 191 | 1 nM | 7080 nM | 7 | 1070 nM | – | – | – | CCCN(CC1CCCCO1)[C@H]1CCc2c(O)cccc2C1 (some centres unmarked) [Example 20] | 0.030 µmol/kg | – | – | –
13 | > 10000 nM | > 14100 | 0.708 nM | 6610 nM | 57 | 117 nM | – | – | – | CCN(CCC1CCCO1)[C@H]1CCc2c(O)cccc2C1 (some centres unmarked) [Example 25] | – | – | – | –

Second part, the compound before the results:

Row | Compound | EC50 (adrenergic α2 receptor; [4]) | Specificity Ratio (a2 A50/D2 A50) (dopamine D2 receptor [2]) | EC50 (dopamine D2 receptor [2]) | Ki (Dopamine D1 receptor) | Selectivity Ratio (D1 K1/D2 K1) (Dopamine D2 receptor [3]) | Ki (Dopamine D2 receptor [3]) | D2 receptor specificity (in words) (dopamine D2 receptor [2]; D2 vs. α2) | dopamine D2 receptor affinity (in words) (Dopamine D2 receptor [3]) | D2 receptor selectivity (in words) (Dopamine D2 receptor [3]; D2 vs. D1) | ED50 [1] | EC50 (adrenergic α2 receptor) | in vivo functional potency (in words) ([1]; rat, in vivo) | dopamine D2 receptor in vitro functional activity/potency (in words) (dopamine D2 receptor [2])
14 | CCCN(CCOC(C)C)[C@H]1CCc2c(ccc3oc(=O)oc23)C1 [Example 38, (S)-5,6,7,8-Tetrahydro-6-[[2-(1-methylethoxy)ethyl]-propylamino]-1,2-naphthalenediol, cyclic carbonate, hydrochloride] | – | – | – | – | – | – | – | – | – | 0.005 µmol/kg | – | – | –
15 | CCCN(CCOCC1CC1)[C@H]1CCc2c(ccc(O)c2O)C1 [Example 3] | 195 nM | 1860 | 0.105 nM | 4790 nM | 74 | 65 nM | – | – | – | 0.007 µmol/kg | – | – | –
16 | CCCN(CCOC(C)CC)[C@H]1CCc2c(ccc(O)c2O)C1 (some centres unmarked) [Example 5] | 245 nM | 1020 | 0.24 nM | 4570 nM | 40 | 115 nM | – | – | – | 0.006 µmol/kg | – | – | –
17 | CCCN(CCC)[C@H]1CCc2c(ccc(O)c2O)C1 [Example 40, (S)-5,6-dihydroxy-2-(di-n-propyl)aminotetralin, reference compound] | – | – | – | – | – | – | – | – | – | 0.009 µmol/kg | 12.5 nM | – | –
18 | CCCN(CCOCC)[C@H]1CCc2c(ccc3c2OCO3)C1 [Example 27] | – | – | – | – | – | – | – | – | – | 0.100 µmol/kg | – | – | –
19 | CCCN(CCOC(C)C)[C@H]1CCc2c(ccc3c2OCO3)C1.Cl [Example 26, (S)-6,7,8,9-Tetrahydro-N-[2-(1-methylethoxy)ethyl]-N-propylnaphtho[1,2-d]-1,3-dioxol-7-amine, hydrochloride] | – | – | – | – | – | – | – | – | – | 0.030 µmol/kg | – | – | –
20 | CCCOCCN(CCC)[C@H]1CCc2c(ccc3c2OCO3)C1 [Example 28] | – | – | – | – | – | – | – | – | – | 0.100 µmol/kg | – | – | –
21 | CCCOCCN(CCC)[C@H]1CCc2c(ccc(O)c2O)C1 [Example 7, (S)-5,6,7,8-tetrahydro-6-[[2-(propoxy)ethyl]propylamino]-1,2-naphthalenediol] | 148 nM | 186 | 0.794 nM | 4680 nM | 36 | 129 nM | – | – | – | 0.002 µmol/kg | – | – | –
22 | CCCN(CC1CCOC1)[C@H]1CCc2c(O)cccc2C1.Cl (stereo partly drawn) [Example 21, (6S)-5,6,7,8-tetrahydro-6-[[(tetrahydro-3-furanyl)methyl]propylamino]-1-naphthalenol, hydrochloride] | 275 nM | 282 | 0.977 nM | 3630 nM | 24 | 151 nM | – | – | – | 0.009 µmol/kg | – | – | –
23 | CCCN(CCOC(C)C)[C@H]1CCc2c(ccc(O)c2O)C1.Cl [Example 1, (S)-5,6,7,8-Tetrahydro-6-[[2-(1-methylethoxy)ethyl]-propylamino]-1,2-naphthalenediol, hydrochloride] | 218 nM | 1480 | 0.148 nM | 7240 nM | 112 | 65 nM | – | – | – | 0.004 µmol/kg | – | – | –
24 | CCCN(CCOC(C)(C)C)[C@H]1CCc2c(ccc3c2OCO3)C1 [Example 29] | – | – | – | – | – | – | – | – | – | 0.040 µmol/kg | – | – | –
